For nine compounds, GI50 and Kd results are on record in patent US20250388575A1, “HETEROBIFUNCTIONAL COMPOUNDS AND METHODS OF TREATING DISEASE” (Halda Therapeutics OpCo, Inc., priority 2022, published 2025).

The GI50 is the concentration that inhibits growth by half. As a reminder, the Kd is a measure of binding affinity in units of concentration. A low value points to higher affinity.

One experiment relates to VCaP cells. The experiment in a line: Cellular growth inhibition assay for VCaP cells, CellTiter-Glo. The experiment is classed as cell-based, human. Conditions: VCaP cells, 72 hours, CellTiter-Glo, read-out: GI50. The method, boiled down: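 GI50 values come from four-parameter curve fits of luminescence data normalized to a zero baseline. Compound, in medium with 0.5% DMSO, was added one day after plating and left for 72 h before CellTiter-Glo 2.0 addition.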
In general terms: In ATP-based viability assays light output follows the ATP content of the culture.

Experiment [1] relates to T-Rex 293 cell line SC3 cells lacking increased expression of androgen receptor protein. The experiment in a line: Cellular growth inhibition, T-Rex 293 SC3 cells lacking increased androgen receptor expression (no doxycycline), CellTiter-Glo. Format: cell-based. Conditions: T-Rex 293 SC3 cells lacking increased androgen receptor expression (not exposed to doxycycline), 72 hours, CellTiter-Glo; read-out: GI50. The gist of the method: (§1)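 SC3, a T-Rex 293 clone with doxycycline-inducible wild-type androgen receptor, was seeded in phenol red-free DMEM with 10% charcoal-dextran FBS, with or without 10 ng/mL doxycycline. Compound added at 24 h (0.5% DMSO) for 72 h at 37° C. CellTiter-Glo 2.0 luminescence; GI50 from four-parameter fit.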

The test system of experiment [2] is T-Rex 293 cell line SC3 cells having increased expression of androgen receptor protein. The experiment in a line: Cellular growth inhibition, T-Rex 293 SC3 cells with increased androgen receptor expression (doxycycline), CellTiter-Glo. The experiment is classed as cell-based. Conditions: T-Rex 293 SC3 cells with increased androgen receptor expression (exposed to 10 ng/mL doxycycline), 72 hours, CellTiter-Glo; read-out: GI50. The method, boiled down: as §1

Another experiment deals with BRD4-BD1 (Homo sapiens (Human), UniProt O60885). The experiment in a line: bromoKdELECT assay for binding affinity to BRD4-BD1. As to conditions: 11-point 3-fold dilution.
Another experiment deals with BRD4-BD2 (Homo sapiens (Human), UniProt O60885). The experiment in a line: bromoKdELECT assay for binding affinity to BRD4-BD2. As to conditions: 11-point 3-fold dilution.

Read-outs that look alike come from different tables or passages of the source. A value given as a limit tells only on which side of the number the result lay.

With `CCS(=O)(=O)Nc1ccc(Oc2cccc(OCCOC3CCN(c4ccc(C(=O)N[C@H]5CC[C@H](Oc6ccc(C#N)c(Cl)c6)CC5)nn4)CC3)c2)c(-c2cn(C)c(=O)c3[nH]ccc23)c1` [I-1, N-[4-(3-chloro-4-cyano-phenoxy)cyclohexyl]-6-[4-[2-[3-[4-(ethylsulfonylamino)-2-(6-methyl-7-oxo-1H-pyrrolo[2,3-c]pyridin-4-yl)phenoxy]phenoxy]ethoxy]-1-piperidyl]pyridazine-3-carboxamide], the GI50 (with VCaP cells (Homo sapiens); in experiment [1]; in experiment [2]) was under 500 nM each time.
Take `CCS(=O)(=O)c1ccc(Oc2cccc(CCCOC3CC4(C3)CN(c3ccc(C(=O)N[C@H]5CC[C@H](Oc6ccc(C#N)c(Cl)c6)CC5)nn3)C4)c2F)c(-c2cn(C)c(=O)c3[nH]ccc23)c1` [I-46]: the Kd on BRD4-BD1 and at BRD4-BD2 was 500 to 2500 nM throughout. In addition, the GI50 (with VCaP cells (Homo sapiens); in experiment [1]; in experiment [2]) was under 500 nM throughout.
Take `CCS(=O)(=O)c1ccc(Oc2cccc(CCC3CCN(c4ccc(C(=O)N[C@H]5CC[C@H](Oc6ccc(C#N)c(Cl)c6)CC5)nn4)CC3)c2F)c(-c2cn(C)c(=O)c3[nH]ccc23)c1` [I-51]: the Kd on BRD4-BD1 and at BRD4-BD2 was 50 to 500 nM in each case. For the same compound, the GI50 (in the experiment with VCaP cells (Homo sapiens); in experiment [1]; in experiment [2]) was under 500 nM each time.
In the case of `CCS(=O)(=O)c1ccc(Oc2cccc(CCCC3CCN(c4ccc(C(=O)N[C@H]5CC[C@H](Oc6ccc(C#N)c(Cl)c6)CC5)nn4)CC3)c2F)c(-c2cn(C)c(=O)c3[nH]ccc23)c1` [I-52], the Kd at BRD4-BD1 and at BRD4-BD2 was 50 to 500 nM each time. Further, the GI50 (in the experiment with VCaP cells; in experiment [1]; in experiment [2]) was under 500 nM throughout.
Regarding `CCS(=O)(=O)c1ccc(Oc2cc(F)c(CCC3CCN(c4ccc(C(=O)N[C@H]5CC[C@H](Oc6ccc(C#N)c(Cl)c6)CC5)nn4)CC3)cc2F)c(-c2cn(C)c(=O)c3[nH]ccc23)c1` [I-59], the Kd at BRD4-BD1 and at BRD4-BD2 was 500 to 2500 nM each time. For the same compound, the GI50 (with VCaP cells; in experiment [1]; in experiment [2]) was under 500 nM each time.
In the case of `Cn1cc(-c2cc(C(C)(C)O)ccc2Oc2ccc(OC3CN(c4ccc(C(=O)N[C@H]5CC[C@H](Oc6ccc(C#N)c(Cl)c6)CC5)nn4)C3)cc2)c2cc[nH]c2c1=O` [I-95, N-[4-(3-chloro-4-cyano-phenoxy)cyclohexyl]-6-[3-[4-[4-(1-hydroxy-1-methyl-ethyl)-2-(6-methyl-7-oxo-1H-pyrrolo[2,3-c]pyridin-4-yl)phenoxy]phenoxy]azetidin-1-yl]pyridazine-3-carboxamide], the Kd at BRD4-BD1 and on BRD4-BD2 was 500 to 2500 nM in each case. Besides, the GI50 (in the experiment on VCaP cells (Homo sapiens); in experiment [1]; in experiment [2]) was under 500 nM in each case.
`Cn1cc(-c2cc(C(C)(C)O)ccc2Oc2ccc(CCC3CCN(c4ccc(C(=O)N[C@H]5CC[C@H](Oc6ccc(C#N)c(Cl)c6)CC5)nn4)CC3)cc2)c2cc[nH]c2c1=O` [I-102]: the Kd at BRD4-BD1 and at BRD4-BD2 was over 2500 nM each time. Further, the GI50 in the experiment on VCaP cells was under 500 nM; in experiment [1], 500 to 1500 nM; in experiment [2], under 500 nM.
With `Cn1cc(-c2cc(C(C)(C)O)ccc2Oc2c(F)cc(CCOC3CCN(c4ccc(C(=O)N[C@H]5CC[C@H](Oc6ccc(C#N)c(Cl)c6)CC5)nn4)CC3)cc2F)c2cc[nH]c2c1=O` [I-109], the Kd at BRD4-BD1 and on BRD4-BD2 was 500 to 2500 nM each time. For the same compound, the GI50 (with VCaP cells (Homo sapiens); in experiment [1]; in experiment [2]) was under 500 nM in each case.
Consider `Cn1cc(-c2cc(C(C)(C)O)ccc2O[C@H]2C[C@H](N(C)CC3CCN(c4ccc(C(=O)N[C@H]5CC[C@H](Oc6ccc(C#N)c(Cl)c6)CC5)nn4)CC3)C2)c2cc[nH]c2c1=O` [I-158, N-((1r,4r)-4-(3-chloro-4-cyanophenoxy)cyclohexyl)-6-(4-((((1r,3r)-3-(4-(2-hydroxypropan-2-yl)-2-(6-methyl-7-oxo-6,7-dihydro-1H-pyrrolo[2,3-c]pyridin-4-yl)phenoxy)cyclobutyl)(methyl)amino)methyl)piperidin-1-yl)pyridazine-3-carboxamide], for which the Kd on BRD4-BD1 and on BRD4-BD2 was 50 to 500 nM in each case. Moreover, the GI50 (in the experiment with VCaP cells (Homo sapiens); in experiment [1]; in experiment [2]) was under 500 nM throughout.
